Experimental findings from PMC3380826 (2012) are described below.

For orientation: ΔTm means the shift of the melting midpoint relative to a reference.

Structures are written as SMILES.

In test [1] the test system is Hum48; d(T2AG3)8 (DNA, G4) TTAGGGTTAGGGTTAGGGTTAGGGTTAGGGTTAGGGTTAGGGTTAGGG
Briefly: CD melting at 295 nm. Particulars: 10 mM Tris-HCl, 0.1 mM EDTA, pH 7.4, pre-formed G4, 2 µM strand.

Test [2] deals with Hum24; d(T2AG3)4 (DNA, G4) TTAGGGTTAGGGTTAGGGTTAGGG
The experiment in a line: CD melting at 295 nm. Particulars: 10 mM Tris-HCl, 0.1 mM EDTA, pH 7.4, pre-formed G4, 2 µM strand.

In the case of `OCCN1CCN(c2ccc3[nH]c(-c4cc(OCCOCCOCCOCCOCCOCCOc5cc(-c6nc7cc(N8CCN(CCO)CC8)ccc7[nH]6)cc(-c6nc7cc(N8CCN(CCO)CC8)ccc7[nH]6)c5)cc(-c5nc6cc(N7CCN(CCO)CC7)ccc6[nH]5)c4)nc3c2)CC1`, the ΔTm in test [1] (100 mM K+, ligand:DNA 10) amounted to 21 °C; in test [1] (100 mM Na+, ligand:DNA 10) it was 13 °C; in test [2] (100 mM K+, ligand:DNA 10), 22 °C; in test [2] (100 mM Na+, ligand:DNA 10), 11 °C.
Consider `OCCN1CCN(c2ccc3[nH]c(-c4cc(OCCOCCOCCOCCOc5cc(-c6nc7cc(N8CCN(CCO)CC8)ccc7[nH]6)cc(-c6nc7cc(N8CCN(CCO)CC8)ccc7[nH]6)c5)cc(-c5nc6cc(N7CCN(CCO)CC7)ccc6[nH]5)c4)nc3c2)CC1`, for which the ΔTm is 16 °C in test [1] (100 mM K+, ligand:DNA 10) and 16 °C in test [2] (100 mM K+, ligand:DNA 10).
Regarding `OCCN1CCN(c2ccc3[nH]c(-c4cc(OCCOCCOCCOCCOCCOc5cc(-c6nc7cc(N8CCN(CCO)CC8)ccc7[nH]6)cc(-c6nc7cc(N8CCN(CCO)CC8)ccc7[nH]6)c5)cc(-c5nc6cc(N7CCN(CCO)CC7)ccc6[nH]5)c4)nc3c2)CC1`, the ΔTm was determined as 18 °C in test [1] (100 mM K+, ligand:DNA 10) and 12 °C in test [2] (100 mM K+, ligand:DNA 10).
In the case of `CCOc1cc(-c2nc3ccc(N4CCN(CCO)CC4)cc3[nH]2)cc(-c2nc3ccc(N4CCN(CCO)CC4)cc3[nH]2)c1`, the ΔTm in test [1] (100 mM K+, ligand:DNA 20) is 9 °C; in test [2] (100 mM K+, ligand:DNA 20) it was 5 °C.
